Experimental data published in ChEMBL document CHEMBL1159079, “Pharmacophore modeling and virtual screening for designing potential 5-lipoxygenase inhibitors” (Bioorg Med Chem Lett, 2010).

Test: Inhibition of potato tuber 5LOX by polarographic method
Design: species or system Solanum tuberosum

| SMILES | IC50 [nM] |
| --- | --- |
| CCN(C)C(=O)c1cc(C(C)(C)C)c2c(c1)C(C)(C)CO2 | 22000 |
| COC1(c2cccc(COc3ccc4c(-c5ccccc5)c5c(cc4c3)C(=O)OC5)c2)CCOCC1 | 14 |
| COc1ccc(C(=O)/C=C/c2ccc(O)c(O)c2)c(OC)c1 | 40 |
| CC(C)(C)c1cc(C(=O)CCCC2CC2)cc2c1OCC2(C)C | 68000 |
| CCCC(=O)c1cc(C(C)(C)C)c2c(c1)C(C)(C)CO2 | 8500 |
| CC1Cc2c(OCc3ccc(-c4ccccc4)cn3)ccc3c2c(c(CCOc2ccccc2CC(=O)O)n3Cc2cccc(F)c2)S1 (centres undefined) | 23 |
| CC(C)(C)c1cc(C(=O)CCCC2CC2)cc2c1OCCC2(C)C | 8000 |
| CS(=O)(=O)c1ccc(C#CC(=O)c2ccccc2)cc1 | 1000 |
| FC(F)(F)c1cccc(Nc2ccccc2-c2n[nH]c(=S)o2)c1 | 770 |
| CCN1CC/C(=C/c2cc(C(C)(C)C)c(O)c(C(C)(C)C)c2)S1(=O)=O | 2500 |
| CS(=O)(=O)c1ccc(C#CC(=O)c2cccc(O)c2)cc1 | 300 |
| COC1(c2cc(F)cc(OCc3cc(-c4ccccc4)n(-c4ccc(S(C)(=O)=O)cc4)n3)c2)CCOCC1 | 3 |
| COc1ccc2c(c1)c(CCN(O)C(N)=O)c(C)n2C(=O)c1ccc(Cl)cc1 | 400 |
| NS(=O)(=O)c1ccc(C#Cc2ccc(=O)n(C(F)F)c2)cc1 | 3500 |
| CS(=O)(=O)c1ccc(-n2nc(C(F)(F)F)cc2-c2ccn(O)c(=O)c2)cc1 | 350 |
| NS(=O)(=O)c1ccc(-n2nc(C(F)(F)F)cc2-c2ccn(O)c(=O)c2)cc1 | 4900 |
| NS(=O)(=O)c1cccc(C#Cc2ccc(=O)n(O)c2)c1 | 15000 |
| COc1ccc(-c2cnsc2-c2ccc(OC)cc2)cc1 | 20000 |
| CS(=O)(=O)c1ccc(C#Cc2ccc(=O)n(C(F)F)c2)cc1 | 3300 |
| CS(=O)(=O)c1cccc(C#Cc2ccc(=O)n(C(F)F)c2)c1 | 3200 |
| CCOC(=O)c1c(Cc2ccc(OC)cc2)[nH]c2c1cc(O)c1ccccc12 | 150 |
| CCOC(=O)c1c(Cc2cccc(Cl)c2)[nH]c2cc(-c3ccccc3)c(O)cc12 | 1200 |
| COC(=O)c1c(Nc2cccc(Cl)c2)[nH]c2ccc(O)cc12 | 300 |
| COc1ccc(-c2ssc(=S)c2-c2ccc(OC)cc2)cc1 | 10000 |
| Cc1ccc(-c2c(-c3ccc(S(C)(=O)=O)cc3)ssc2=S)cc1 | 9000 |
| CCOC(=O)c1c(Cc2cccc(Cl)c2)[nH]c2ccc(O)cc12 | 2000 |

| SMILES | IC50 [nM] |
| --- | --- |
| NS(=O)(=O)c1ccc(C#Cc2ccc(=O)n(O)c2)cc1 | 68000 |
| COc1ccc(-c2sncc2-c2ccc(C)cc2)cc1 | 8000 |
| CC1Cc2c(CCc3ccc(-c4ccccc4)cn3)ccc3c2C(S1)C(CC(C)(C)Cc1nnn[nH]1)N3Cc1ccc(Cl)cc1 (centres undefined) | 16 |
| CC1Cc2c(OCc3ccc(-c4ccccc4)cn3)ccc3c2C(S1)C(CC(C)(C)CC(=O)NS(C)(=O)=O)N3Cc1ccc(Cl)cc1 (centres undefined) | 36 |
| CS(=O)(=O)Nc1ccc(Oc2ccc(F)cc2)s1 | 130 |
| COc1cc(/C=C\C=C\c2nc3ncccc3o2)ccc1O | 370 |
| CCOC(=O)c1ccc2oc(/C=C/C=C\c3ccc(O)c(O)c3)nc2c1 | 20 |
| NC(=O)C1(c2cccc(Sc3ccc(-n4cccc4)cc3)c2)CCOCC1 | 270 |
| Cc1ccc(-c2c(-c3ccc(S(C)(=O)=O)cc3)cn3c2CCC3)cc1 | 10000 |
| CC1(C)CCC[C@@]2(C)C1CCC(C=O)[C@@H]2CC=C(C=O)C=O (some centres undefined) | 7500 |
| COC1(c2cc(F)cc(OCC3=NN(c4ccccc4)C(c4ccccc4)C3)c2)CCOCC1 (centres undefined) | 570 |
| CC(C)(C)c1cc(C(=O)CCCC#N)cc2c1OCC2(C)C | 6000 |
| COc1cc(/C=C\C=C\c2nc3ccccc3o2)ccc1O | 330 |
| CCOC(=O)c1ccc2nc(/C=C/C=C\c3ccc(O)c(OC)c3)oc2c1 | 130 |
| COc1cc(O)cc(/C=C/C=C/C(=O)NCCN2CCC(OC(c3ccccc3)c3ccccc3)CC2)c1 | 150 |
| CC(C)(C)c1cc(Cc2cccs2)cc2c1OCC2(C)C | 68000 |
| COc1cc(/C=C\C=C\c2nc3ccc(CO)cc3o2)ccc1O | 300 |
| CC(=O)Nc1ccc(/C(=C/c2ccc(S(C)(=O)=O)cc2)C(=O)O)cc1 | 110 |
| COC1(c2cccc(OCc3ccc4ccccc4c3)c2)CCOCC1 | 10 |
| N#Cc1cc(-c2ccoc2)c2ccc(OCc3cccc(C4(O)CCOCC4)n3)cc2c1 | 15 |
| O=C(O)/C=C/c1ccc(O)c(O)c1 [CAFFEIC ACID] | 4000 |
| Cc1ccc(-c2cc(C(F)(F)F)nn2-c2ccc(S(N)(=O)=O)cc2)cc1 [CELECOXIB] | 10000 |
| CS(=O)(=O)Nc1ccc([N+](=O)[O-])cc1OC1CCCCC1 [NS-398] | 10000 |
| C#CCCCC(=O)c1cc(C(C)(C)C)c(O)c(C(C)(C)C)c1 [TEBUFELONE] | 3000 |
| COC1(c2cc(F)cc(OCc3ccc4c(ccc(=O)n4C)c3)c2)CCOCC1 [ZD-2138] | 330 |

Continued, values first:

| IC50 [nM] | SMILES |
| --- | --- |
| 49000 | O=C1NCCN(c2cccc([N+](=O)[O-])c2)N1 |
| 2700 | CC1CN(c2cccc(Cl)c2)NC(=O)N1 (centres undefined) |
| 19000 | O=C1NCCN(c2cccc(F)c2)N1 |
| 26000 | O=C1NCCN(c2ccccn2)N1 |
| 14000 | CSc1cccc(N2CCNC(=O)N2)c1 |
| 15000 | Cc1cccc(N2CCNC(=O)N2)c1 |
| 14000 | COCCOCC1CN(c2ccccc2)NC(=O)N1 (centres undefined) |
| 178000 | Nc1cccc(N2CCNC(=O)N2)c1 |
| 140 | Cc1nccn1-c1ccc(Sc2cccc(C3(C(N)=O)CCOCC3)c2)cc1 |
| 41000 | NS(=O)(=O)c1ccc(N2N=C(C(F)(F)F)CC2c2c[nH]c3ccccc23)cc1 (centres undefined) |
| 1500 | CC1(C)Cc2c(-c3ccccc3)c(-c3ccc([N+](=O)[O-])cc3)c(CC(=O)O)n2C1 |
| 1600 | O=C(O)Cc1c(-c2ccc(Cl)cc2)c(-c2ccccc2)c2n1CCC2 |
| 770 | FC(F)(F)c1cccc(Nc2ccccc2-c2n[nH]c(=S)s2)c1 |
| 12000 | Cc1cc(C)cc(N2CCNC(=O)N2)c1 |
| 5500 | COc1cccc(N2CC(C)NC(=O)N2)n1 (centres undefined) |
| 21000 | O=C1NCCN(c2ccccc2)N1 |
| 1500 | CCCCC1CN(c2ccccc2)NC(=O)N1 (centres undefined) |
| 850 | COC1(c2cc(F)cc(OCCc3c[nH]c4ccccc34)c2)CCOCC1 |
| 10000 | NS(=O)(=O)c1ccccc1C#Cc1ccc(=O)n(O)c1 |
| 3400 | CS(=O)(=O)c1ccccc1C#Cc1ccc(=O)n(C(F)F)c1 |
| 4900 | O=C1NCCN(c2ccoc2-c2ccccc2)N1 |
| 8200 | O=C1NCCN(c2ncccc2-c2cccs2)N1 |
| 740 | CC(C)(C)OC(=O)N1CCN(C(=O)CCCC2=CCc3ccccc32)CC1 |
| 30000 | O=C1NCCN(c2cccnc2-c2ccccc2)N1 |
| 870 | O=C(CC1=CC(Cc2ccc(Cl)c(Cl)c2)c2ccccc21)N1CCOCC1 (centres undefined) |
| 950 | CC1=C(CCCC(=O)N2CCOCC2)c2cc(Cl)ccc2C1Cc1ccccc1 (centres undefined) |
| 2060 | O=C(CCCC1=CCc2ccccc21)N1CCOCC1 |
| 180 | CC1(C)Cc2c(-c3ccccc3)c(-c3ccc(Cl)cc3)c(CC(=O)O)n2C1 [LICOFELONE] |
